# Source: ChEMBL document CHEMBL1201862, “PubChem BioAssay data set” (2004)
# Calls of active or inactive are those of the source.
# Tests used:
# [1] = biological target: T1, NADPH oxidase 1 (Homo sapiens, UniProt Q9Y5S8); assay type: functional, cell-based;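 further: Cell-based assay with luminescence read-out, IC50 derived from inhibitor dose-response curves; intracellular ROS from endogenous NOX1 in intact HT29 colon cancer cells; potency of inhibitors that lower the ROS luminescence signal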
# T1 sequence (Q9Y5S8 whole entry): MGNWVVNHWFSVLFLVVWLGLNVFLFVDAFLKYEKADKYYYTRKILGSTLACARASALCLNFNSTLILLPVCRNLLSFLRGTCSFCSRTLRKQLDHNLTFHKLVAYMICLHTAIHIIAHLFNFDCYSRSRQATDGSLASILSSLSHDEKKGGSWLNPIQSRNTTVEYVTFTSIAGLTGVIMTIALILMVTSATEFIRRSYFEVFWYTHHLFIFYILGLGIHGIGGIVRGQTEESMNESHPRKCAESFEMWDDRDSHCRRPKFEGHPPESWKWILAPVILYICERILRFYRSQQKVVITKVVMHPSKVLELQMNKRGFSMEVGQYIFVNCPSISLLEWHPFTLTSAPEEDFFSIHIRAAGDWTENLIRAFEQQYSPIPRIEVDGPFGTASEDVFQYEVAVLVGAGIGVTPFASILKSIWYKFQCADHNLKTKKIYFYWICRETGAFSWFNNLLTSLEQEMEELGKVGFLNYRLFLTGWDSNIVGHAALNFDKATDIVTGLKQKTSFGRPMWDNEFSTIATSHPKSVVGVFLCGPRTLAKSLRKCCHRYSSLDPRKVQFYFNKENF
# [2] = Trypanosoma cruzi growth suppression in host cells – NIH3T3 host cells, beta-gal luminescence, confirmation (AID 2044); assay type: functional, cell-based;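 further: intracellular parasites grown in NIH/3T3 mouse fibroblasts as host cells; luminescent beta-galactosidase reporter signal from transgenic T. cruzi replicating inside host cells; inhibitors lower the luminescence signal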
# [3] = NIH3T3 cell viability loss – ATP luminescence, mouse fibroblasts, counter-screen, dose response (AID 2010); assay type: functional, cell-based;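 further: cells exposed to compound for about 90 hours before reading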
# [4] = cells
# [5] = biological target: Glyceraldehyde-3-phosphate dehydrogenase (Homo sapiens, UniProt P04406)
# [6] = biological target: T2, Alkaline phosphatase, tissue-nonspecific isozyme (Homo sapiens, UniProt P05186); assay: potency against alkaline phosphatase TNAP – biochemical, luminescent, dose response, SAR follow-up (AID 1056)
# T2 sequence (P05186 whole entry): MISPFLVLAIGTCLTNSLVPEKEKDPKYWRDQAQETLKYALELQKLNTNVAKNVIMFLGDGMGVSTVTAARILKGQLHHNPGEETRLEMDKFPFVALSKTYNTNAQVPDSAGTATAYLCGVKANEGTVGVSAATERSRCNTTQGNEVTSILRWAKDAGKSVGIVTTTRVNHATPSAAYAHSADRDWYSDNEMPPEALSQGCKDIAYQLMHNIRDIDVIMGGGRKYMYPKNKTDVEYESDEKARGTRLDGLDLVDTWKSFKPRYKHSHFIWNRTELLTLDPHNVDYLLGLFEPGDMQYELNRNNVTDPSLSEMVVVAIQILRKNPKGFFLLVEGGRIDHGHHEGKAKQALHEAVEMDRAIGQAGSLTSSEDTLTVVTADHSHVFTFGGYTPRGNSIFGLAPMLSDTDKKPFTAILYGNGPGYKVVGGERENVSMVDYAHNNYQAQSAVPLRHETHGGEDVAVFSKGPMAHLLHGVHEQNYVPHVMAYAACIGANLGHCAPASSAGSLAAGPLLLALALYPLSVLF
# [7] = viability loss in THP-1 monocytes – THP-1 cells, cytotoxicity control for Vif-APOBEC3G degradation inhibitor project, dose response (AID 1117359); assay type: functional; settings: THP-1
# [8] = HEK-293T cell viability reduction – luminescence, B-cell screen hits, cytotoxicity control for BCR NF-kB inhibitor project, dose response (AID 489021); assay type: functional, cell-based;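 further: HEK-293T cells carrying an NF-kB luciferase reporter; cells exposed to compound for about 14 hours before viability readout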
# [9] = biological target: DNA dC->dU-editing enzyme APOBEC-3G (Homo sapiens, UniProt Q9HC16); assay: Dose Response confirmation of small molecule APOBEC3G DNA Deaminase Inhibitors via a fluorescence-based single-stranded DNA deaminase assay. [Related pubchem assays (depositor defined):AID493012, AID493028]; assay type: functional
# [10] = HPDE-C7 pancreatic duct cell viability loss – fluorescence, HTS (AID 430); assay type: functional, cell-based; settings: Homo sapiens
# [11] = viability loss of HPDE-C7K cells – cell-based, fluorescence, HTS, primary screen (AID 431); assay type: functional; settings: Homo sapiens
# [12] = biological target: T3, Microphthalmia-associated transcription factor (Homo sapiens, UniProt O75030); assay: reducers of TRPM1 reporter luminescence, concentration series – cell-based, SK-MEL-5, cherry-picked, set 3, MITF inhibitor project, dose response (AID 493073); assay type: functional;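 further: SK-MEL-5 melanoma cells with luciferase driven by the MITF target TRPM1 promoter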
# T3 sequence (O75030 whole entry): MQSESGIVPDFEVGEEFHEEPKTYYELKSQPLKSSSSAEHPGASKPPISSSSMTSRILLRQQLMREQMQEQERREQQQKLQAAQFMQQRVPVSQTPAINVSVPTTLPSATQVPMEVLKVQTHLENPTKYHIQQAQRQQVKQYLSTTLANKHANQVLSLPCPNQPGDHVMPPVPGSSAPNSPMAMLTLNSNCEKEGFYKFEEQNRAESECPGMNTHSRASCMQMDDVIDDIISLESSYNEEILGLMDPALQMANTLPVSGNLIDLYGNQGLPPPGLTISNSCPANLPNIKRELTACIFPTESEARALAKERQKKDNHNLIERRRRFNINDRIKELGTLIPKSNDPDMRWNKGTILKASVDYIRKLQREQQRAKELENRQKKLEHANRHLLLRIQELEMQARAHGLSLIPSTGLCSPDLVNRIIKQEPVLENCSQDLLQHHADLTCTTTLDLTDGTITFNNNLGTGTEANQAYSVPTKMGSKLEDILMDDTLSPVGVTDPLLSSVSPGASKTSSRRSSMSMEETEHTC
# [13] = viability loss in HeLa cells – cytotoxicity control for MgcRacGAP inhibitor project, dose response (AID 624300); assay type: functional
# [14] = biological target: T4, Rac GTPase-activating protein 1 (Homo sapiens, UniProt Q9H0H5); assay: blockers of MgcRacGAP-driven Rac1 GTP hydrolysis – biochemical, ADP Hunter fluorescence, primary and confirmatory, confirmation (AID 624330); assay type: functional
# T4 sequence (Q9H0H5 whole entry): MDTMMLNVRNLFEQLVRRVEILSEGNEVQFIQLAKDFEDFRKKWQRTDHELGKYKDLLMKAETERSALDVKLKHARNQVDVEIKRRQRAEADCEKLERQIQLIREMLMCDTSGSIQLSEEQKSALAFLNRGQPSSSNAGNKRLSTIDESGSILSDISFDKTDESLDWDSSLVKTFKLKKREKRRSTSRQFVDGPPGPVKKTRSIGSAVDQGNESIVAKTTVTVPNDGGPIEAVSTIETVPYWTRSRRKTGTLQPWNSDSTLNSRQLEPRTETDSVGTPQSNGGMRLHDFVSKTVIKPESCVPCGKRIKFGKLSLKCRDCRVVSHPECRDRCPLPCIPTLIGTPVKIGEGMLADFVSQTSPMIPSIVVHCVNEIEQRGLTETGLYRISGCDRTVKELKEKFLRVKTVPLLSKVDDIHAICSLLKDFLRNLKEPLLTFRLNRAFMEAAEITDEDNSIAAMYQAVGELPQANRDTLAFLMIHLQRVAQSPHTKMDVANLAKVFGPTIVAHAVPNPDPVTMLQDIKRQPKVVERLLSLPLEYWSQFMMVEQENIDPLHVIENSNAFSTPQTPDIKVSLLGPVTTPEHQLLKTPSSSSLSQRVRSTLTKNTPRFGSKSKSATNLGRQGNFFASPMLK
# [15] = reduced cellular PGC1a acetyl-lysine signal – cell-based, cherry-picked samples, dose response (AID 720514); assay type: functional;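 further: potency may reflect raised or lowered acetylation signal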
# [16] = biological target: Nonstructural protein 1 (Influenza A virus, UniProt Q194T2); assay type: functional, Influenza A virus (A/California/07/2009(H1N1))
# [17] = P. falciparum Dd2 growth inhibitors, dose response, SYBR Green, cherry-picked samples (AID 1159567); assay type: functional, cell-based
# [18] = toxicity to human hepatoma HepG2 cells – cell-based, cherry-picked samples, cytotoxicity control, dose response (AID 1159577); assay type: functional
# [19] = growth inhibition of yeast DHODH-expressing 3D7 parasites – SYBR Green, dry powder samples, dose response (AID 1159570); assay type: functional, cell-based;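 further: parasite growth measured after 72 hours of compound exposure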
# [20] = toxicity to human HepG2 hepatoma cells – cell-based, plate reader, dry powder samples, cytotoxicity control, dose response (AID 1159569); assay type: functional;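 further: inhibitor potency with signal falling toward the positive control level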
# [21] = Dd2 malaria parasite growth inhibition potency – SYBR Green, dry powder samples, dose response (AID 1159566); assay type: functional, cell-based;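 further: potency for growth inhibition with lower SYBR green DNA signal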
# [22] = growth inhibition of PfATP4-mutant resistant parasites – NITD609-resistant line, SYBR Green, dry powder, dose response (AID 1159571); assay type: functional, cell-based;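 further: parasites synchronized at ring stage by sorbitol before testing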
# Sequence of Glyceraldehyde-3-phosphate dehydrogenase (P04406 whole entry): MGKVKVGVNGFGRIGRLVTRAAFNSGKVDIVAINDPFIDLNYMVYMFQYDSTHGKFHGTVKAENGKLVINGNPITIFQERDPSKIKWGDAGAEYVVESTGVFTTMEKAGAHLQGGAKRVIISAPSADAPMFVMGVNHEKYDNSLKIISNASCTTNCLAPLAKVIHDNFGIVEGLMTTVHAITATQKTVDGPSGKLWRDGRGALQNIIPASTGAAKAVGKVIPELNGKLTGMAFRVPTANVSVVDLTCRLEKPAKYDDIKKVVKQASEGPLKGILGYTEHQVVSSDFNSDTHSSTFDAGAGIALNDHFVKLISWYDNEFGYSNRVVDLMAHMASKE
# Sequence of Nonstructural protein 1 (Q194T2 whole entry): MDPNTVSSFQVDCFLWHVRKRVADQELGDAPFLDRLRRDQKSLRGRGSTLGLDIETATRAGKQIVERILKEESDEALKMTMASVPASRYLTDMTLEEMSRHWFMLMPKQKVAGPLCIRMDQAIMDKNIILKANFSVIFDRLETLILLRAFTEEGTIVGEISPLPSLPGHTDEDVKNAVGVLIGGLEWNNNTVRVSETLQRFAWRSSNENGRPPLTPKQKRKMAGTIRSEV
# Sequence of DNA dC->dU-editing enzyme APOBEC-3G (Q9HC16 whole entry): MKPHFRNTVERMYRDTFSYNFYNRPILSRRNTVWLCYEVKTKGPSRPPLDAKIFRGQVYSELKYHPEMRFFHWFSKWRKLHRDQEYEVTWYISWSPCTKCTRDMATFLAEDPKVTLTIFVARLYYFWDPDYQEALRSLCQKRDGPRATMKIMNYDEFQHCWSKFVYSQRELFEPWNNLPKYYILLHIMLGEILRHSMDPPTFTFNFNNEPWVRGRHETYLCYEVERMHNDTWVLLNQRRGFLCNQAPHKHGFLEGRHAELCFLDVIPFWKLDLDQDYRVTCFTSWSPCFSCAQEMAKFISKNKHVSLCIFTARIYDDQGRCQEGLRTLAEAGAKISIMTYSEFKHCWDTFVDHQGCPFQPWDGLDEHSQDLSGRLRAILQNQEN
smiles,measurement,setting,value
O=[N+]([O-])c1cccc(/C=N/Nc2c(Cl)cncc2Cl)c1,IC50,[1],> 17 µM (not active)
O=C(O)c1nc(Cl)c(Cl)c(N/N=C/c2ccc(N3CCOCC3)c([N+](=O)[O-])c2)c1Cl,IC50,[1],> 17 µM (not active)
COc1ccc(-c2nc(CN3CCN(Cc4cccc(Cl)c4)CC3)c(C)o2)cc1,EC50,[2],< 0.1 µM (active)
same,EC50,[3],> 60 µM (not active)
same,EC50,[4],0.377 µM (active)
COc1ccc(OC)c(S(=O)(=O)Nc2ccc(O)c3ccccc23)c1,IC50,[5],> 100 µM (not active)
same,IC50,[6],> 100 µM (inactive)
same,CC50,[7],12.8 µM (active)
CCOc1ccc(-c2cc(CCCC(=O)NCc3ccc(C)cc3)no2)cc1,IC50,[8],> 80 µM (inactive)
O=C(Oc1cccc2ccccc12)c1sc2ccccc2c1Cl,IC50,[1],> 17 µM (not active)
O=C(Oc1ccccc1F)c1sc2ccccc2c1Cl,IC50,[1],> 17 µM (not active)
COc1ccc(O)c(C(=O)C2c3ccccc3C(=O)N2c2ccc(C)cc2)c1 (configuration not stated),IC50,[9],37.4 µM (active)
same,CC50,[7],> 40 µM (active)
CCc1c(C)nc2cc(-c3cc(OC)cc(OC)c3)nn2c1N1CCCC1,EC50,[10],10.5 µM (active)
same,EC50,[11],13 µM (active)
COc1ccc(CN2CCCC(CNC(=O)c3ccc(F)cc3)C2)c(C)c1C (configuration not stated),EC50,[2],< 0.1 µM (active)
same,EC50,[3],> 30 µM (not active)
same,EC50,[4],0.09 µM (active)
O=C1/C(=C/c2ccccc2[N+](=O)[O-])COc2ccccc21,AC50,[12],9.8 µM (active)
same,CC50,[13],100 µM (active)
same,IC50,[14],101 µM (active)
same,AC50,[15],4.77 µM (active)
Cc1cc(N(C)C)ccc1N=Nc1ccc(N)cc1,IC50,[16],21.4 µM (active)
same,IC50,[8],> 80 µM (inactive)
same,IC50,[14],29.3 µM (active)
Cc1ccc([C@H]2C(C(=O)O)=CC[C@@H](c3cccc(Cl)c3)N2S(=O)(=O)c2ccc(C)cc2)cc1,CC50,[7],> 40 µM (active)
N#Cc1ccc(-c2ccc([C@@H]3[C@@H]4CN(S(=O)(=O)c5ccc(F)cc5)C[C@H]3N4)cc2)cc1,AC50,[15],1.57 µM (active)
same,AC50,[17],4.69 µM (active)
N#C[C@H]1[C@H](c2ccc(-c3ccccc3)cc2)[C@H](CO)N1C(=O)Cc1ccncc1,AC50,[17],3.05 µM (active)
same,AC50,[18],> 36 µM (inactive)
COc1ccccc1C#Cc1ccc([C@H]2[C@@H](C#N)N(C(=O)C3CCC3)[C@H]2CO)cc1,AC50,[19],1.16 µM (active)
same,AC50,[20],37.3 µM (active)
same,AC50,[17],1.36 µM (active)
same,AC50,[21],0.51 µM (active)
same,AC50,[18],> 42 µM (inactive)
same,AC50,[22],0.795 µM (active)
CO[C@@H]1CN(C)C(=O)c2cc(NC(=O)c3ccc(-c4ccccc4)cc3)ccc2OC[C@@H](C)NC[C@@H]1C,AC50,[17],7.25 µM (active)
same,AC50,[18],14.2 µM (active)
COc1ccc2c3c(n(C)c2c1)[C@@H](CO)NCC31CCN(Cc2ccccc2Cl)CC1,AC50,[17],2.44 µM (active)
same,AC50,[18],18.3 µM (active)
COc1ccc(C(=O)CC(=O)O)c2c1C=CC(C)(C)O2 [URSINOIC ACID],EC50,[10],> 20 µM (not active)
same,EC50,[11],> 20 µM (not active)
